Data from ChEMBL document CHEMBL6182861, “Structural modification of heptamethine indocyanine dyes with improved aqueous solubility and stability for photothermal therapy” (Eur J Med Chem, 2025).
The source made the active and inactive calls. The calls are words filed in the database; no cut-off is given here.

tested on: 4T1; experiment: Cytotoxicity against mouse 4T1 cells under dark condition at 3.12 uM incubated for 24 hrs by MTT assay; assay type: functional, cell-based; details: not given

Compound | Activity
CN1/C(=C/C=C/C(C#N)=C/C=C/C2=[N+](C)c3ccccc3C2(C)C)C(C)(C)c2ccccc21.[I-] | Active

tested on: HepG2; experiment: Induction of ROS generation in human HepG2 cells at 3.12 uM incubated for 4 hrs followed by exposure to laser irradiation of 808 nm for 2 mins by flow cytometry; assay type: functional, cell-based; details: time 242.0 min

Compound | Activity
CN1/C(=C/C=C/C(C#N)=C/C=C/C2=[N+](C)c3ccccc3C2(C)C)C(C)(C)c2ccccc21.[I-] | Active

tested on: HepG2; experiment: Cytotoxicity against human HepG2 cells under dark condition at 3.12 uM incubated for 24 hrs by MTT assay; assay type: functional, cell-based; details: not given

Compound | Activity
CN1/C(=C/C=C/C(C#N)=C/C=C/C2=[N+](C)c3ccccc3C2(C)C)C(C)(C)c2ccccc21.[I-] | Active

tested on: not listed separately; experiment: Photosensitizing property of compound assessed as generation of singlet-state oxygen by ESR spectrometry; assay type: functional; details: not given

Compound | Activity
CN1/C(=C/C=C/C(C#N)=C/C=C/C2=[N+](C)c3ccccc3C2(C)C)C(C)(C)c2ccccc21.[I-] | Active

tested on: 4T1; experiment: Induction of ROS generation in mouse 4T1 cells at 3.12 uM incubated for 4 hrs followed by exposure to laser irradiation of 808 nm for 2 mins by DCFH-DA probe based CLSM; assay type: functional, cell-based; details: time 242.0 min

Compound | Activity
CN1/C(=C/C=C/C(C#N)=C/C=C/C2=[N+](C)c3ccccc3C2(C)C)C(C)(C)c2ccccc21.[I-] | Active

tested on: not listed separately; experiment: Drug uptake in human HepG2 cells assessed as increase in fluorescence intensity at 3.12 uM incubated for 4 hrs by CLSM; assay type: ADME, cell-based; details: hepg2, 4 h

Compound | Drug uptake
CN1/C(=C/C=C/C(C#N)=C/C=C/C2=[N+](C)c3ccccc3C2(C)C)C(C)(C)c2ccccc21.[I-] | Active

tested on: Mitochondrial membrane; experiment: Inhibition of mitochondrial membrane potential in mouse 4T1 cells at 3.12 uM incubated for 24 hrs by Rh123 probe based CLSM; assay type: cell membranes; details: not given

Compound | inhibition
CN1/C(=C/C=C/C(C#N)=C/C=C/C2=[N+](C)c3ccccc3C2(C)C)C(C)(C)c2ccccc21.[I-] | Active; Certain Degree Of Inhibition Was Observed

tested on: Mitochondrial membrane; experiment: Inhibition of mitochondrial membrane potential in mouse 4T1 cells assessed as green fluorescence at 3.12 uM preincubated for 4 hrs followed by exposure to laser irradiation of 808 nm for 2 mins and subsequent incubation for 20 hrs by JC-1 dye based analysis; assay type: cell membranes; details: time 1442.0 min

Compound | inhibition
CN1/C(=C/C=C/C(C#N)=C/C=C/C2=[N+](C)c3ccccc3C2(C)C)C(C)(C)c2ccccc21.[I-] | Active

tested on: Mitochondrial membrane; experiment: Inhibition of mitochondrial membrane potential in human HepG2 cells at 3.12 uM incubated for 24 hrs by Rh123 probe based CLSM; assay type: cell membranes; details: not given

Compound | inhibition
CN1/C(=C/C=C/C(C#N)=C/C=C/C2=[N+](C)c3ccccc3C2(C)C)C(C)(C)c2ccccc21.[I-] | Active; Certain Degree Of Inhibition Was Observed

tested on: Mitochondrial membrane; experiment: Inhibition of mitochondrial membrane potential in human HepG2 cells at 3.12 uM incubated for 24 hrs by flow cytometry; assay type: cell membranes; details: not given

Compound | inhibition
CN1/C(=C/C=C/C(C#N)=C/C=C/C2=[N+](C)c3ccccc3C2(C)C)C(C)(C)c2ccccc21.[I-] | Active; Certain Degree Of Inhibition Was Observed

tested on: HepG2; experiment: Induction of ROS generation in human HepG2 cells at 3.12 uM incubated for 4 hrs followed by exposure to laser irradiation of 808 nm for 2 mins by DCFH-DA probe based CLSM; assay type: functional, cell-based; details: time 242.0 min

Compound | Activity
CN1/C(=C/C=C/C(C#N)=C/C=C/C2=[N+](C)c3ccccc3C2(C)C)C(C)(C)c2ccccc21.[I-] | Active

tested on: Mitochondrial membrane; experiment: Inhibition of mitochondrial membrane potential in mouse 4T1 cells at 3.12 uM preincubated for 4 hrs followed by exposure to laser irradiation of 808 nm for 2 mins and subsequent incubation for 20 hrs by Rh123 probe based CLSM; assay type: cell membranes; details: time 1442.0 min

Compound | inhibition
CN1/C(=C/C=C/C(C#N)=C/C=C/C2=[N+](C)c3ccccc3C2(C)C)C(C)(C)c2ccccc21.[I-] | Active; Significant Inhibition Was Observed

tested on: not listed separately; experiment: Drug uptake in human HepG2 cells assessed as increase in fluorescence intensity at 3.12 uM incubated for 4 hrs by flow cytometry; assay type: ADME, cell-based; details: hepg2, 4 h

Compound | Drug uptake
CN1/C(=C/C=C/C(C#N)=C/C=C/C2=[N+](C)c3ccccc3C2(C)C)C(C)(C)c2ccccc21.[I-] | Active

tested on: Mitochondrial membrane; experiment: Inhibition of mitochondrial membrane potential in human HepG2 cells at 3.12 uM preincubated for 4 hrs followed by exposure to laser irradiation of 808 nm for 2 mins and subsequent incubation for 20 hrs by Rh123 probe based CLSM; assay type: cell membranes; details: time 1442.0 min

Compound | inhibition
CN1/C(=C/C=C/C(C#N)=C/C=C/C2=[N+](C)c3ccccc3C2(C)C)C(C)(C)c2ccccc21.[I-] | Active; Significant Inhibition Was Observed

tested on: not listed separately; experiment: Drug uptake in mouse 4T1 cells assessed as increase in fluorescence intensity at 3.12 uM incubated for 4 hrs by flow cytometry; assay type: ADME, cell-based; details: 4t1, 4 h

Compound | Drug uptake
CN1/C(=C/C=C/C(C#N)=C/C=C/C2=[N+](C)c3ccccc3C2(C)C)C(C)(C)c2ccccc21.[I-] | Active

tested on: Mitochondrial membrane; experiment: Inhibition of mitochondrial membrane potential in mouse 4T1 cells at 3.12 uM preincubated for 4 hrs followed by exposure to laser irradiation of 808 nm for 2 mins and subsequent incubation for 20 hrs by flow cytometry; assay type: cell membranes; details: time 1442.0 min

Compound | inhibition
CN1/C(=C/C=C/C(C#N)=C/C=C/C2=[N+](C)c3ccccc3C2(C)C)C(C)(C)c2ccccc21.[I-] | Active; Significant Inhibition Was Observed

tested on: HepG2; experiment: Induction of apoptosis in human HepG2 cells at 3.12 uM incubated for 4 hrs followed by exposure to laser irradiation of 808 nm for 2 mins by Annexin V-FITC/PI staining based flow cytometry; assay type: functional, cell-based; details: time 242.0 min

Compound | Activity
CN1/C(=C/C=C/C(C#N)=C/C=C/C2=[N+](C)c3ccccc3C2(C)C)C(C)(C)c2ccccc21.[I-] | Active

tested on: not listed separately; experiment: Drug uptake in mouse 4T1 cells assessed as increase in fluorescence intensity at 3.12 uM incubated for 4 hrs by CLSM; assay type: ADME, cell-based; details: 4t1, 4 h

Compound | Drug uptake
CN1/C(=C/C=C/C(C#N)=C/C=C/C2=[N+](C)c3ccccc3C2(C)C)C(C)(C)c2ccccc21.[I-] | Active

tested on: Mitochondrial membrane; experiment: Inhibition of mitochondrial membrane potential in human HepG2 cells at 3.12 uM preincubated for 4 hrs followed by exposure to laser irradiation of 808 nm for 2 mins and subsequent incubation for 20 hrs by flow cytometry; assay type: cell membranes; details: time 1442.0 min

Compound | inhibition
CN1/C(=C/C=C/C(C#N)=C/C=C/C2=[N+](C)c3ccccc3C2(C)C)C(C)(C)c2ccccc21.[I-] | Active; Significant Inhibition Was Observed

tested on: Mitochondrial membrane; experiment: Inhibition of mitochondrial membrane potential in mouse 4T1 cells at 3.12 uM incubated for 24 hrs by flow cytometry; assay type: cell membranes; details: not given

Compound | inhibition
CN1/C(=C/C=C/C(C#N)=C/C=C/C2=[N+](C)c3ccccc3C2(C)C)C(C)(C)c2ccccc21.[I-] | Active; Certain Degree Of Inhibition Was Observed

tested on: not listed separately; experiment: Photothermal stability of compound at 60 degreeC at 20 uM exposed to laser irradiation of 808 nm for 2.5 mins; assay type: physicochemical; details: not given

Compound | Stability
CN1/C(=C/C=C/C(C#N)=C/C=C/C2=[N+](C)c3ccccc3C2(C)C)C(C)(C)c2ccccc21.[I-] | Stable

tested on: Mitochondrial membrane; experiment: Inhibition of mitochondrial membrane potential in human HepG2 cells assessed as green fluorescence at 3.12 uM preincubated for 4 hrs followed by exposure to laser irradiation of 808 nm for 2 mins and subsequent incubation for 20 hrs by JC-1 dye based analysis; assay type: cell membranes; details: time 1442.0 min

Compound | inhibition
CN1/C(=C/C=C/C(C#N)=C/C=C/C2=[N+](C)c3ccccc3C2(C)C)C(C)(C)c2ccccc21.[I-] | Active

tested on: 4T1; experiment: Induction of apoptosis in mouse 4T1 cells at 3.12 uM incubated for 4 hrs followed by exposure to laser irradiation of 808 nm for 2 mins by Annexin V-FITC/PI staining based flow cytometry; assay type: functional, cell-based; details: time 242.0 min

Compound | Activity
CN1/C(=C/C=C/C(C#N)=C/C=C/C2=[N+](C)c3ccccc3C2(C)C)C(C)(C)c2ccccc21.[I-] | Active

tested on: not listed separately; experiment: Photosensitizing property of compound assessed as generation of singlet-state oxygen at 10 uM exposed to laser irradiation of 808 nm for 2 mins by SOSG probe based analysis; assay type: functional; details: not given

Compound | Activity
CN1/C(=C/C=C/C(C#N)=C/C=C/C2=[N+](C)c3ccccc3C2(C)C)C(C)(C)c2ccccc21.[I-] | Active

tested on: 4T1; experiment: Induction of ROS generation in mouse 4T1 cells at 3.12 uM incubated for 4 hrs followed by exposure to laser irradiation of 808 nm for 2 mins by flow cytometry; assay type: functional, cell-based; details: time 242.0 min

Compound | Activity
CN1/C(=C/C=C/C(C#N)=C/C=C/C2=[N+](C)c3ccccc3C2(C)C)C(C)(C)c2ccccc21.[I-] | Active
